Experimental data: patent publication US12077503B2, “Substituted cyclic amides and their use as herbicides” (FMC CORPORATION, priority 2015, dated 2024)

Legend:
Type in all cases: in vivo
[1] = system: redroot pigweed (Amaranthus retroflexus); assay: Test G Pre-Emergence Protocol; conditions: Amaranthus retroflexus, pre-emergence, 312 h, evaluated after 13 days; for pest or weed control at 15.625 g/ha: 15.625 g ai/ha; for pest or weed control at 15.625 g/ha / pest or weed control at 250 g/ha: read-out: Pigweed, Redroot damage rating (100=total damage to plant; 0=no damage to plant); for pest or weed control at 62.5 g/ha: 62.5 g ai/ha, 100=total damage to plant, 0=no damage to plant, read-out: Pigweed, Redroot damage rating; for pest or weed control at 250 g/ha: 250 g ai/ha
Summary of the method: (§1)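 Spraying took place one day after sowing, at 15.625, 62.5 or 250 g/ha, using an acetone/water (50:50) spray solution containing 0.5% Tween 20. Plants were kept under glasshouse conditions (24/16 °C, 14 h light, 65% humidity, watered twice daily), and injury was rated 0–100 at day 13.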

[2] = system: giant foxtail (Setaria faberi); assay: Test G Pre-Emergence Protocol; conditions: Setaria faberi, pre-emergence, 312 h, evaluated after 13 days; for pest or weed control at 15.625 g/ha: 15.625 g ai/ha; for pest or weed control at 15.625 g/ha / pest or weed control at 250 g/ha: read-out: Foxtail, Giant damage rating (100=total damage to plant; 0=no damage to plant); for pest or weed control at 62.5 g/ha: 62.5 g ai/ha, 100=total damage to plant, 0=no damage to plant, read-out: Foxtail, Giant damage rating; for pest or weed control at 250 g/ha: 250 g ai/ha
Summary of the method: as §1

[3] = system: ivy-leaved morning glory (Ipomoea hederacea); assay: Test G Pre-Emergence Protocol; conditions: Ipomoea, pre-emergence, 312 h, evaluated after 13 days; for pest or weed control at 15.625 g/ha: 15.625 g ai/ha; for pest or weed control at 15.625 g/ha / pest or weed control at 250 g/ha: read-out: Morningglory, Ivy-leaved damage rating (100=total damage to plant; 0=no damage to plant); for pest or weed control at 62.5 g/ha: 62.5 g ai/ha, 100=total damage to plant, 0=no damage to plant, read-out: Morningglory, Ivy-leaved damage rating; for pest or weed control at 250 g/ha: 250 g ai/ha
Summary of the method: as §1

[4] = system: barnyardgrass (Echinochloa crus-galli); assay: Test G Pre-Emergence Protocol; conditions: Echinochloa crus-galli, pre-emergence, 312 h, evaluated after 13 days; for pest or weed control at 15.625 g/ha: 15.625 g ai/ha; for pest or weed control at 15.625 g/ha / pest or weed control at 250 g/ha: read-out: Barnyardgrass damage rating (100=total damage to plant; 0=no damage to plant); for pest or weed control at 62.5 g/ha: 62.5 g ai/ha, 100=total damage to plant, 0=no damage to plant, read-out: Barnyardgrass damage rating; for pest or weed control at 250 g/ha: 250 g ai/ha
Summary of the method: as §1

[5] = system: velvetleaf (Abutilon theophrasti); assay: Test G Pre-Emergence Protocol; conditions: Abutilon theophrasti, pre-emergence, 312 h, evaluated after 13 days; for pest or weed control at 15.625 g/ha: 15.625 g ai/ha; for pest or weed control at 15.625 g/ha / pest or weed control at 250 g/ha: read-out: Velvetleaf damage rating (100=total damage to plant; 0=no damage to plant); for pest or weed control at 62.5 g/ha: 62.5 g ai/ha, 100=total damage to plant, 0=no damage to plant, read-out: Velvetleaf damage rating; for pest or weed control at 250 g/ha: 250 g ai/ha
Summary of the method: as §1

[6] = system: corn (Zea mays); assay: Test G Pre-Emergence Protocol; conditions: Zea mays, pre-emergence, 312 h, evaluated after 13 days; for plant injury at 15.625 g/ha: 15.625 g ai/ha; for plant injury at 15.625 g/ha / plant injury at 250 g/ha: read-out: Corn damage rating (100=total damage to plant; 0=no damage to plant); for plant injury at 62.5 g/ha: 62.5 g ai/ha, 100=total damage to plant, 0=no damage to plant, read-out: Corn damage rating; for plant injury at 250 g/ha: 250 g ai/ha
Summary of the method: as §1

[7] = system: redroot pigweed (Amaranthus retroflexus); assay: Test G Post-Emergence Protocol; conditions: Amaranthus retroflexus, post-emergence, 312 h, read-out: Pigweed, Redroot damage rating; for pest or weed control at 15.625 g/ha: 15.625 g ai/ha, evaluated after 13 days (100=total damage to plant; 0=no damage to plant); for pest or weed control at 62.5 g/ha: 62.5 g ai/ha; for pest or weed control at 62.5 g/ha / pest or weed control at 250 g/ha: evaluated after 13 days, 100=total damage to plant, 0=no damage to plant; for pest or weed control at 250 g/ha: 250 g ai/ha
Summary of the method: (§2)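 Eight days post-sowing, plants received a spray of test compound (acetone/water 50:50, 0.5% Tween 20) at 15.625, 62.5 or 250 g/ha. Glasshouse regime thereafter: 24/16 °C, 14 h light, 65% humidity. Assessment after 13 days on a 0–100 damage scale.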

[8] = system: giant foxtail (Setaria faberi); assay: Test G Post-Emergence Protocol; conditions: Setaria faberi, post-emergence, 312 h, read-out: Foxtail, Giant damage rating; for pest or weed control at 15.625 g/ha: 15.625 g ai/ha, evaluated after 13 days (100=total damage to plant; 0=no damage to plant); for pest or weed control at 62.5 g/ha: 62.5 g ai/ha; for pest or weed control at 62.5 g/ha / pest or weed control at 250 g/ha: evaluated after 13 days, 100=total damage to plant, 0=no damage to plant; for pest or weed control at 250 g/ha: 250 g ai/ha
Summary of the method: as §2

[9] = system: ivy-leaved morning glory (Ipomoea hederacea); assay: Test G Post-Emergence Protocol; conditions: Ipomoea, post-emergence, 312 h, read-out: Morningglory, Ivy-leaved damage rating; for pest or weed control at 15.625 g/ha: 15.625 g ai/ha, evaluated after 13 days (100=total damage to plant; 0=no damage to plant); for pest or weed control at 62.5 g/ha: 62.5 g ai/ha; for pest or weed control at 62.5 g/ha / pest or weed control at 250 g/ha: evaluated after 13 days, 100=total damage to plant, 0=no damage to plant; for pest or weed control at 250 g/ha: 250 g ai/ha
Summary of the method: as §2

[10] = system: barnyardgrass (Echinochloa crus-galli); assay: Test G Post-Emergence Protocol; conditions: Echinochloa crus-galli, post-emergence, 312 h, read-out: Barnyardgrass damage rating; for pest or weed control at 15.625 g/ha: 15.625 g ai/ha, evaluated after 13 days (100=total damage to plant; 0=no damage to plant); for pest or weed control at 62.5 g/ha: 62.5 g ai/ha; for pest or weed control at 62.5 g/ha / pest or weed control at 250 g/ha: evaluated after 13 days, 100=total damage to plant, 0=no damage to plant; for pest or weed control at 250 g/ha: 250 g ai/ha
Summary of the method: as §2

[11] = system: velvetleaf (Abutilon theophrasti); assay: Test G Post-Emergence Protocol; conditions: Abutilon theophrasti, post-emergence, 312 h, read-out: Velvetleaf damage rating; for pest or weed control at 15.625 g/ha: 15.625 g ai/ha, evaluated after 13 days (100=total damage to plant; 0=no damage to plant); for pest or weed control at 62.5 g/ha: 62.5 g ai/ha; for pest or weed control at 62.5 g/ha / pest or weed control at 250 g/ha: evaluated after 13 days, 100=total damage to plant, 0=no damage to plant; for pest or weed control at 250 g/ha: 250 g ai/ha
Summary of the method: as §2

[12] = system: corn (Zea mays); assay: Test G Post-Emergence Protocol; conditions: Zea mays, post-emergence, 312 h, read-out: Corn damage rating; for plant injury at 15.625 g/ha: 15.625 g ai/ha, evaluated after 13 days (100=total damage to plant; 0=no damage to plant); for plant injury at 62.5 g/ha: 62.5 g ai/ha; for plant injury at 62.5 g/ha / plant injury at 250 g/ha: evaluated after 13 days, 100=total damage to plant, 0=no damage to plant; for plant injury at 250 g/ha: 250 g ai/ha
Summary of the method: as §2

| Structure (SMILES) | pest or weed control at 15.625 g/ha [1] | pest or weed control at 62.5 g/ha [1] | pest or weed control at 250 g/ha [1] | pest or weed control at 15.625 g/ha [2] | pest or weed control at 62.5 g/ha [2] | pest or weed control at 250 g/ha [2] | pest or weed control at 15.625 g/ha [3] | pest or weed control at 62.5 g/ha [3] | pest or weed control at 15.625 g/ha [4] | pest or weed control at 62.5 g/ha [4] | pest or weed control at 250 g/ha [4] | pest or weed control at 15.625 g/ha [5] | pest or weed control at 62.5 g/ha [5] | pest or weed control at 250 g/ha [5] | plant injury at 15.625 g/ha [6] | plant injury at 62.5 g/ha [6] | plant injury at 250 g/ha [6] | pest or weed control at 15.625 g/ha [7] | pest or weed control at 62.5 g/ha [7] | pest or weed control at 250 g/ha [7] | also measured |
| --- | --- | --- | --- | --- | --- | --- | --- | --- | --- | --- | --- | --- | --- | --- | --- | --- | --- | --- | --- | --- | --- |
| CN1C[C@H](c2ccc(C(F)(F)F)cc2)[C@@H](C(=O)Nc2cnccc2F)C1=O (racemic) [Compound 1744] | 0% | 10% | 10% | 0% | 10% | 50% | 0% | 0% | 0% | 0% | 0% | 0% | 0% | 0% | 0% | 0% | 0% | 0% | 10% | 30% | pest or weed control at 15.625 g/ha [8]: 0%; pest or weed control at 62.5 g/ha [8]: 20%; pest or weed control at 250 g/ha [8]: 60%; pest or weed control at 15.625 g/ha [9]: 0%; pest or weed control at 62.5 g/ha [9]: 0%; pest or weed control at 250 g/ha [9]: 40%; pest or weed control at 15.625 g/ha [10]: 0%; pest or weed control at 62.5 g/ha [10]: 10%; pest or weed control at 250 g/ha [10]: 70%; pest or weed control at 15.625 g/ha [11]: 0%; pest or weed control at 62.5 g/ha [11]: 0%; pest or weed control at 250 g/ha [11]: 10%; plant injury at 15.625 g/ha [12]: 0%; plant injury at 62.5 g/ha [12]: 0%; plant injury at 250 g/ha [12]: 10% |
| CCOc1cc([C@@H]2CN(C)C(=O)[C@H]2C(=O)Nc2cccc(F)c2F)cc(C(F)(F)F)n1 (racemic) [Compound 1753] | 0% | 0% | 60% | 70% | 80% | 90% | 0% | 0% | 30% | 70% | 80% | 0% | 0% | 0% | 0% | 0% | 60% | 0% | 20% | 30% | pest or weed control at 250 g/ha [3]: 80%; pest or weed control at 15.625 g/ha [8]: 60%; pest or weed control at 62.5 g/ha [8]: 60%; pest or weed control at 250 g/ha [8]: 70%; pest or weed control at 15.625 g/ha [9]: 20%; pest or weed control at 62.5 g/ha [9]: 50%; pest or weed control at 250 g/ha [9]: 60%; pest or weed control at 15.625 g/ha [10]: 40%; pest or weed control at 62.5 g/ha [10]: 70%; pest or weed control at 250 g/ha [10]: 70%; pest or weed control at 15.625 g/ha [11]: 10%; pest or weed control at 62.5 g/ha [11]: 20%; pest or weed control at 250 g/ha [11]: 30%; plant injury at 15.625 g/ha [12]: 60%; plant injury at 62.5 g/ha [12]: 60%; plant injury at 250 g/ha [12]: 80% |
| CON1C[C@@H](c2cccc(C(F)(F)F)c2)[C@H](C(=O)Nc2cccc(F)c2F)C1=O (racemic) [Compound 1763] | 0% | 0% | 0% | 80% | 90% | 90% | 0% | 0% | 20% | 60% | 80% | 0% | 0% | 0% | 0% | 50% | 80% | 0% | 0% | 20% | pest or weed control at 250 g/ha [3]: 20%; pest or weed control at 15.625 g/ha [8]: 60%; pest or weed control at 62.5 g/ha [8]: 60%; pest or weed control at 250 g/ha [8]: 70%; pest or weed control at 15.625 g/ha [9]: 30%; pest or weed control at 62.5 g/ha [9]: 40%; pest or weed control at 250 g/ha [9]: 50%; pest or weed control at 15.625 g/ha [10]: 40%; pest or weed control at 62.5 g/ha [10]: 60%; pest or weed control at 250 g/ha [10]: 70%; pest or weed control at 15.625 g/ha [11]: 0%; pest or weed control at 62.5 g/ha [11]: 10%; pest or weed control at 250 g/ha [11]: 20%; plant injury at 15.625 g/ha [12]: 20%; plant injury at 62.5 g/ha [12]: 20%; plant injury at 250 g/ha [12]: 70% |
